Measurements published in US12630552B2, “Inhibitors of KRAS G12C” (BEIGENE, LTD., priority 2019, dated 2026).

Molecular target: T1, KRAS (aa 1-169) G12C, C51S, C80L, C118S (Homo sapiens, UniProt P01116, C118S/C51S/C80L/G12C)
T1 construct: The KRAS (aa 1-169) G12C, C51S, C80L, C118S with a His-tag; made in house
Assay: KRAS G12C SOS1-mediated nucleotide exchange / GST-cRaf RBD binding FRET assay
Format: biochemical
Conditions: GDP-loaded KRAS G12C pre-incubated with compound at 24° C. for 3 hrs; SOS1, GTPγS and GST-cRaf RBD added; FRET 665 nm/620 nm
Protocol: Biochemical Functional Assay:
The KRAS (aa 1-169) G12C, C51S, C80L, C118S with a His-tag was expressed, purified and loaded with GDP in house. All protein and substrate solutions were prepared in assay buffer containing 25 mM HEPES pH7.5, 10 mM MgCl2, and 0.01% Triton X-100. Purified GDP-loaded KRAS (aa 1-169) G12C, C51S, C80L, C118S protein was pre-incubated with a serially diluted compound at 24° C. for 3 hrs. Purified SOS1 (aa 564-1049) protein, GTPγS (Sigma) and GST-cRaf RBD (aa 1-149) were then added to each well and incubated at 24° C. for additional 3 hrs. […] Following the incubation, Mab Anti-6HIS-Tb cryptate (Cisbio) and Mab Anti GST-XL665 (Cisbio) were added and further incubated at 24° C. for 3 hrs. The binding interaction between active GTPγS KRAS G12C and GST-cRaf RBD brings the Tb and XL665 into close proximity enabling an increased FRET signal (Ex337 nm, Em665 nm/620 nm). The inhibition percentage of nucleotide exchange reaction in presence of increasing concentrations of compounds was calculated based on the ratio of fluorescence at 665 nm to that at 620 nm detected on a BMG PHERAstar FSX instrument. The IC50 value of each compound was calculated from fitting the data to the four-parameter logistic model by Dotmatics.

T1 sequence (P01116 1-169 isoform P01116-2 G12C/C51S/C80L/C118S): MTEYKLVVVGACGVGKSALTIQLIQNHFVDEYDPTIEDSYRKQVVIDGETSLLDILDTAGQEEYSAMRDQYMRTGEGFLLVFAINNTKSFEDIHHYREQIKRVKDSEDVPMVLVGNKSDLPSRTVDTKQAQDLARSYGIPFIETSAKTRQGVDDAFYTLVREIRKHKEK

SMILES: C=CC(=O)N1CCN(c2nc(OC[C@@H]3CCCN3C)nc3c2CN(C(=O)c2cccc4cccc(Br)c24)C3)C[C@@H]1CC#N [Example 52]
- IC50: 0.00851 µM

SMILES: C=CC(=O)N1CCN(c2nc(OC[C@@H]3CCCN3C)nc3c2CN(Cc2cccc(C)c2Cl)C3)C[C@@H]1CC#N [Example 53]
- IC50: 0.0149 µM

SMILES: C=CC(=O)N1CCN(c2nc(OC[C@@H]3CCCN3C)nc3c2CN(C2Cc4cccc5cc(O)cc2c45)C3)C[C@@H]1CC#N (stereo partly shown) [Example 55]
- IC50: < 0.0051 µM

SMILES: C=CC(=O)N1CCN(c2nc(OC[C@@H]3CCCN3C)nc3c2CN(C(=O)c2cccc4cccc(O)c24)C3)C[C@@H]1CC#N [Example 56]
- IC50: 0.941 µM
